Test system: 242566-281-R-J2-PDC complex spheroid viability
Assay: Anticancer human tumor 242566-281-R-J2-PDC patient-derived pancreatic carcinoma cell line growth inhibition [RAS]
Settings: for viability, T/C: stronger effect = lower value; active means viability on the fitted dose curve at most 10% of control; inactive means the rest
How it was run: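 Multi-cell-type spheroids: tumor cells plus HUVEC endothelial cells and mesenchymal stem cells. RAS-pathway inhibitors were combined with targeted agents, each dosed in half-log steps down from clinical Cmax, or from 10 microM when Cmax was unknown.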

[1] = curve of first compound, second compound 0.0316 µM
[2] = curve of first compound, second compound 0.1 µM
[3] = curve of first compound, second compound 0.316 µM
[4] = curve of first compound, second compound 1 µM
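Further: spheroids exposed to compound for 7 days before readout.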
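Wherever viability, T/C is given: 100% = DMSO vehicle control wells.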

CCc1c2c(nc3ccc(O)cc13)-c1cc3c(c(=O)n1C2)COC(=O)[C@]3(O)CC + C=CC(=O)N1CCN(c2nc(OCC3CCCN3C)nc3c(F)c(-c4nc(N)cc(C)c4C(F)(F)F)c(Cl)cc23)C(C)C1
34.8 nM: IC50 (curve of first compound, second compound 0.01 µM)
40.9 nM: IC50 [3]
34.5 nM: IC50 [2]
48.8 nM: IC50 [1]
inactive: viability, T/C (second compound 0.00316 µM, first compound 0.000949 µM) 94% | viability, T/C (second compound 0.00316 µM, first compound 0.003 µM) 121% | viability, T/C (second compound 0.00316 µM, first compound 0.00949 µM) 84.4% | viability, T/C (second compound 0.00316 µM, first compound 0.03 µM) 51% | viability, T/C (second compound 0.00316 µM, first compound 0.0949 µM) 27.1% | viability, T/C (second compound 0.00316 µM, first compound 0.3 µM) 13.1% | viability, T/C (second compound 0.01 µM, first compound 0.000949 µM) 103% | viability, T/C (second compound 0.01 µM, first compound 0.003 µM) 133% | viability, T/C (second compound 0.01 µM, first compound 0.00949 µM) 82.4% | viability, T/C (second compound 0.01 µM, first compound 0.03 µM) 56.1% | viability, T/C (second compound 0.01 µM, first compound 0.0949 µM) 26.9% | viability, T/C (second compound 0.01 µM, first compound 0.3 µM) 12.3% | viability, T/C (second compound 0.0316 µM, first compound 0.000949 µM) 112% | viability, T/C (second compound 0.0316 µM, first compound 0.003 µM) 132% | viability, T/C (second compound 0.0316 µM, first compound 0.00949 µM) 83.3% | viability, T/C (second compound 0.0316 µM, first compound 0.03 µM) 67.1% | viability, T/C (second compound 0.0316 µM, first compound 0.0949 µM) 32.3% | viability, T/C (second compound 0.0316 µM, first compound 0.3 µM) 11.8% | viability, T/C (second compound 0.1 µM, first compound 0.000949 µM) 111% | viability, T/C (second compound 0.1 µM, first compound 0.003 µM) 129% | viability, T/C (second compound 0.1 µM, first compound 0.00949 µM) 104% | viability, T/C (second compound 0.1 µM, first compound 0.03 µM) 54% | viability, T/C (second compound 0.1 µM, first compound 0.0949 µM) 23.1% | viability, T/C (second compound 0.1 µM, first compound 0.3 µM) 16% | viability, T/C (second compound 0.316 µM, first compound 0.000949 µM) 105% | viability, T/C (second compound 0.316 µM, first compound 0.003 µM) 137% | viability, T/C (second compound 0.316 µM, first compound 0.00949 µM) 77.1% | viability, T/C (second compound 0.316 µM, first compound 0.03 µM) 63.7% | viability, T/C (second compound 0.316 µM, first compound 0.0949 µM) 28.8% | viability, T/C (second compound 0.316 µM, first compound 0.3 µM) 14.7% | viability, T/C (second compound 1 µM, first compound 0.000949 µM) 104% | viability, T/C (second compound 1 µM, first compound 0.003 µM) 114% | viability, T/C (second compound 1 µM, first compound 0.00949 µM) 86.7% | viability, T/C (second compound 1 µM, first compound 0.03 µM) 66% | viability, T/C (second compound 1 µM, first compound 0.0949 µM) 32.7% | viability, T/C (second compound 1 µM, first compound 0.3 µM) 10.9%
50.8 nM: IC50 [4]
31.6 nM: IC50 (curve of first compound, second compound 0.00316 µM)

C=CC(=O)Nc1cc(Nc2nccc(-c3cn(C)c4ccccc34)n2)c(OC)cc1N(C)CCN(C)C + C#Cc1c(F)ccc2cc(O)cc(-c3ncc4c(N5CC6CCC(C5)N6)nc(OCC56CCCN5CC(F)C6)nc4c3F)c12
inactive: viability, T/C (second compound 0.0316 µM, first compound 0.00316 µM) 81.2% | viability, T/C (second compound 0.0316 µM, first compound 0.01 µM) 115% | viability, T/C (second compound 0.0316 µM, first compound 0.0316 µM) 80.8% | viability, T/C (second compound 0.0316 µM, first compound 0.1 µM) 52.9% | viability, T/C (second compound 0.0316 µM, first compound 0.316 µM) 43.1% | viability, T/C (second compound 0.0316 µM, first compound 1 µM) 37.9% | viability, T/C (second compound 0.1 µM, first compound 0.00316 µM) 80.3% | viability, T/C (second compound 0.1 µM, first compound 0.01 µM) 85.2% | viability, T/C (second compound 0.1 µM, first compound 0.0316 µM) 60.7% | viability, T/C (second compound 0.1 µM, first compound 0.1 µM) 46.9% | viability, T/C (second compound 0.1 µM, first compound 0.316 µM) 41.3% | viability, T/C (second compound 0.1 µM, first compound 1 µM) 35.2% | viability, T/C (second compound 0.316 µM, first compound 0.00316 µM) 77.6% | viability, T/C (second compound 0.316 µM, first compound 0.01 µM) 75.2% | viability, T/C (second compound 0.316 µM, first compound 0.0316 µM) 66% | viability, T/C (second compound 0.316 µM, first compound 0.1 µM) 47.1% | viability, T/C (second compound 0.316 µM, first compound 0.316 µM) 40.7% | viability, T/C (second compound 0.316 µM, first compound 1 µM) 35.3% | viability, T/C (second compound 1 µM, first compound 0.00316 µM) 68.3% | viability, T/C (second compound 1 µM, first compound 0.01 µM) 60.2% | viability, T/C (second compound 1 µM, first compound 0.0316 µM) 46.7% | viability, T/C (second compound 1 µM, first compound 0.1 µM) 42.1% | viability, T/C (second compound 1 µM, first compound 0.316 µM) 36.4% | viability, T/C (second compound 1 µM, first compound 1 µM) 38.5% | viability, T/C (second compound 3.16 µM, first compound 0.00316 µM) 60.2% | viability, T/C (second compound 3.16 µM, first compound 0.01 µM) 58.6% | viability, T/C (second compound 3.16 µM, first compound 0.0316 µM) 48% | viability, T/C (second compound 3.16 µM, first compound 0.1 µM) 41% | viability, T/C (second compound 3.16 µM, first compound 0.316 µM) 36.1% | viability, T/C (second compound 3.16 µM, first compound 1 µM) 37.7% | viability, T/C (second compound 10 µM, first compound 0.00316 µM) 57.1% | viability, T/C (second compound 10 µM, first compound 0.01 µM) 57.1% | viability, T/C (second compound 10 µM, first compound 0.0316 µM) 44.6% | viability, T/C (second compound 10 µM, first compound 0.1 µM) 40.1% | viability, T/C (second compound 10 µM, first compound 0.316 µM) 39.8% | viability, T/C (second compound 10 µM, first compound 1 µM) 36.7%
25.2 nM: IC50 [4]
70.8 nM: IC50 [2]
22.2 nM: IC50 (curve of first compound, second compound 3.16 µM)
114 nM: IC50 [1]
16.1 nM: IC50 (curve of first compound, second compound 10 µM)
88.1 nM: IC50 [3]

Nc1ccn(C2OC(CO)C(O)C2(F)F)c(=O)n1 (stereo unspecified)
inactive: viability, T/C (compound 0.00316 µM) 102% [middle of 4 runs] | viability, T/C (compound 0.01 µM) 103% [middle of 4 runs] | viability, T/C (compound 0.0316 µM) 74.9% [middle of 4 runs] | viability, T/C (compound 0.1 µM) 49.9% [middle of 4 runs] | viability, T/C (compound 0.316 µM) 23.4% [middle of 4 runs] | viability, T/C (compound 1 µM) 15.6% [middle of 4 runs]
89.6 nM [middle of 4 runs]: IC50 (curve of compound)

Reference: PubChem BioAssay AID2060910 (Molecular Pharmacology Branch, DTP, NCI, 2025)
